Patent publication US5155209A, “R-(+) enantiomeric form of 7-(2, 3-epoxypropoxy) actinomycin D” (priority 1991, dated 1992)

Experiments:
P388/ADR [1] = assay: Inhibition of growth in vitro of P388/ADR cells; assay type: cell-based, mouse; settings: actively growing tumor cells
Protocol: (§1) The analogues are assayed for in vitro growth inhibitory activity against several experimental tumor lines including human and murine leukemia, mouse melanoma, and human lymphoblastic leukemia.

B16 = assay: Inhibition of growth in vitro of B16 cells; assay type: cell-based, mouse; settings: actively growing tumor cells
Protocol: as §1

P388/ADR [2] = assay: Antitumor activity against ip implanted P388/ADR in CDF1 mice; assay type: in vivo; parameters: OD (optimal dose of drugs): unit not given here; settings: for % ILS (percent increase in median life time vs controls) / (surv) number of 60 days survivors/number of animals tested / MST (median survival time): ip qd 1-9, at optimal dose; for OD (optimal dose of drugs): treated ip qd 1-9
Protocol: ^e Optimal dose of drugs.
^ f Median survival time of tumor bearing mice.
^g Percent increase in median life time in days of drugtreated dying
animals vs those of controls; (survivors), number of 60 days
survivors/number of animals tested in the group.
In order to examine a broader spectrum of activity, these optical isomers are tested in two other mouse leukemia cell lines in vivo. One cell line, P388/ADR, is a derivative of the above P388/S made resistant to intercalating agents like […].

[3] = tested on: DNA synthesis in L1210 cells; assay: Inhibition of DNA synthesis in L1210 ([methyl-14C]thymidine incorporation); assay type: cell-based, Murine; settings: [methyl-14C]thymidine incorporation into DNA; read-out: inhibition of synthesis of nucleic acids in L1210 IC50 DNA
Protocol: (§2) ^a Drug concentration (micromolor) for 50% reduction of incorporation
(§3) of [methyl^14 C]thymidine into DNA^b and [5^3 H] uridine into
(§4) RNA^c from the rate of incorporation of the same radionucleotides in
(§5) nondrug treated L1210 cells growing actively in vitro.
(§6) Inhibition of nucleic acid synthesis in L1210 lymphoid leukemia cells by (±)-EPA and it optical isomers are assayed. […] To achieve this, a digestion of the nucleic acid pellet with DNase-free RNase enzyme, prior to final pelleting of the DNA precipitate is made to ensure that no more than ±8% contamination from […] into DNA takes place, and for this the necessary correction is made in the data reported in Table V.

[4] = tested on: RNA synthesis in L1210 cells; assay: Inhibition of RNA synthesis in L1210 ([5-3H]uridine incorporation); assay type: cell-based, Murine; settings: [5-3H]uridine incorporation into RNA; read-out: inhibition of synthesis of nucleic acids in L1210 IC50 RNA
Protocol: as §2, §3, §4, §5, §6

L1210 cells = assay: Inhibition of growth of L1210 cells in culture; assay type: cell-based, Murine
Protocol: as §1

leukemia L1210 = assay: Activity in mice bearing leukemia L1210; assay type: in vivo; settings: L1210 ip in CDF1 mouse; for OD (optimal dose): ip days 1, 5, 9; for % ILS (percent increase in median life span) / (surv) number of over 60 days survivors/number of animals tested: ip days 1, 5, 9, at optimal dose
Description: ^e OD, optimal dose of drugs in milligrams/killograms per injection,
administered ip on days 1, 5, and 9, following ip inoculation with
^f % ILS, percent increase in median life span in days, of the
tumorbearing drugtreated dying animals when compared with similar tumor
bearing mice but not treated with drugs. (surv), number of over 60 days
survivors/number of animals tested.

B16 melanoma [5] = assay: B16 melanoma implanted sc, drug iv (sc-iv) in BDF1 mice; assay type: in vivo; settings: B16 sc implanted; for % ILS / (surv) sixty day survivors/number of mice treated / MST (median survival time): drug iv day 1; for OD (optimal dose): drug iv day 1, 0.1 mL vehicle
Protocol: (§7) Subcutaneously implanted B16 melanoma in BDF1 mice is a slow growing tumor, but its rate of growth becomes faster when it is implanted ip. […] This is not consistent with data in other tumors; however, in this connection it should be pointed out that the combined effects of drugs (or enantiomers in this case) can be manifested in several ways, i.e., they can be synergistic, additive, or subtractive.
(§8) 0.2 ml of brei (tumor weight/Hank's balanced salt solution, (1:5) of B16
(§9) implanted sc or ip into groups of nine BDF1 mice on day 0. Drugs
(§10) administered iv on day 1 or ip on days 1, 5, and 9, following tumor
(§11) administered ip on days 1, 5, and 9. OD, optimal dose in
(§12) milligrams/milliliter of vehicle, and administered iv or ip in 0.1 mL of
(§13) vehicle (5% v/v Me2 SOsaline). MST, median survival times in days of
(§14) tumor bearing and nondrug treated (control) or drugtreated mice. % ILS,
(§15) percent increase in life span of drug treated groups over the control
(§16) group of test animals, excluding survivors. (surv), number of sixty day
(§17) survivors/number of mice treated with drug.

B16 melanoma [6] = assay: B16 melanoma implanted ip, drug ip (ip-ip) in BDF1 mice; assay type: in vivo; settings: B16 ip implanted; for % ILS / (surv) sixty day survivors/number of mice treated / MST (median survival time): drug ip days 1, 5, 9; for OD (optimal dose): drug ip days 1, 5, 9, 0.1 mL vehicle
Protocol: as §7, §8, §9, §10, §11, §12, §13, §14, §15, §16, §17

C26 colon carcinoma = C26 colon carcinoma implanted in CDF1 mice, drug ip; assay type: in vivo; settings: for % ILS / (surv) sixty day survivors/number of mice treated / MST: drug ip days 1, 5, 9; for OD (optimal dose): drug ip days 1, 5, 9, 0.1 mL vehicle
Protocol: implantation. Primary colon C26 carcinoma (tripan blue excluding, 2.5
× 10^5 cells/mouse) implanted in CDF1 mice on day 0; drug
as §11, §12, §13, §14, §15, §16, §17

CCRF-CEM [7] = settings: cited from earlier work
[8] = tested on: P388/S lymphocytic leukemia; settings: cited from earlier work
CCRF-CEM [9] = assay: In vitro growth inhibition of CCRF-CEM human lymphoblastic leukemia cells; assay type: cell-based; settings: purer (90%) form of isomers
Protocol: as §1

| Compound | inhibition of growth ID50 P388/ADR (P388/ADR [1]) | inhibition of growth ID50 B16 (B16) | % ILS (percent increase in median life time vs controls) (P388/ADR [2]) | (surv) number of 60 days survivors/number of animals tested (P388/ADR [2]) | MST (median survival time) (P388/ADR [2]) | OD (optimal dose of drugs) (P388/ADR [2]) | inhibition of growth of L1210 cells in culture; ID50 (L1210 cells) | OD (optimal dose) (leukemia L1210) | % ILS (percent increase in median life span) (leukemia L1210) | (surv) number of over 60 days survivors/number of animals tested (leukemia L1210) | % ILS (B16 melanoma [5]) | (surv) sixty day survivors/number of mice treated (B16 melanoma [5]) | MST (median survival time) (B16 melanoma [5]) | OD (optimal dose) (B16 melanoma [5]) | % ILS (B16 melanoma [6]) | OD (optimal dose) (B16 melanoma [6]) | % ILS (C26 colon carcinoma) | (surv) sixty day survivors/number of mice treated (C26 colon carcinoma) | MST (C26 colon carcinoma) | OD (optimal dose) (C26 colon carcinoma) | also measured |
| --- | --- | --- | --- | --- | --- | --- | --- | --- | --- | --- | --- | --- | --- | --- | --- | --- | --- | --- | --- | --- | --- |
| Cc1c2oc3c(C)c(OCC4CO4)cc(C(=O)NC4C(=O)NC(C(C)C)C(=O)N5CCCC5C(=O)N(C)CC(=O)N(C)C(C(C)C)C(=O)OC4C)c3nc-2c(C(=O)NC2C(=O)NC(C(C)C)C(=O)N3CCCC3C(=O)N(C)CC(=O)N(C)C(C(C)C)C(=O)OC2C)c(N)c1=O (racemic) [3b[(±)-EPA]] [7-(2,3-epoxypropoxy) actinomycin D] | 80 ± 11 nM | 2.5 ± 0.6 nM | 344% | 4/10 | 40 days | 0.65 | 28.7 ± 8.7 nM | 0.05 milligrams/killograms per inje | 186% | 2/9 | 64% | 0/9 | 54.0 days | 1.0 milligrams/milliliter of vehic | 105% | 0.30 milligrams/milliliter of vehic | 64% | 0/10 | 36.0 days | 0.60 milligrams/milliliter of vehic | % ILS (percent increase in median life time vs controls) (P388/ADR [2]; listed as racemic EPA): 344%; (surv) number of 60 days survivors/number of animals tested (P388/ADR [2]; listed as racemic EPA): four out of 10; IC50 [3]: 80 ± 19 nM; IC50 [4]: 24 ± 4 nM; (surv) sixty day survivors/number of mice treated (B16 melanoma [6]): 2/9; antitumor activity in CCRF-CEM cells in vitro (CCRF-CEM [7]): high antitumor activity; antitumor activity in P388/S mouse leukemia in vivo [8]: high antitumor activity |
| Cc1c2oc3c(C)c(OCC4CO4)cc(C(=O)NC4C(=O)NC(C(C)C)C(=O)N5CCCC5C(=O)N(C)CC(=O)N(C)C(C(C)C)C(=O)OC4C)c3nc-2c(C(=O)NC2C(=O)NC(C(C)C)C(=O)N3CCCC3C(=O)N(C)CC(=O)N(C)C(C(C)C)C(=O)OC2C)c(N)c1=O [(R)-(+)-EPA, 7-(2,3-epoxypropoxy) actinomycin D] | 40 ± 12 nM | 2.0 ± 0.4 nM | 400% | 4/10 | 45 days | 0.30 | 23.1 ± 7.7 nM | 0.05 milligrams/killograms per inje | 199% | 3/9 | 70% | 1/9 | 56.0 days | 1.0 milligrams/milliliter of vehic | 105% | 0.30 milligrams/milliliter of vehic | 89% | 2/10 | 41.5 days | 0.60 milligrams/milliliter of vehic | (surv) sixty day survivors/number of mice treated (B16 melanoma [6]): 2/9; MST (median survival time) (B16 melanoma [6]): 39.0 days; 50% growth inhibitory dose (ID50) (CCRF-CEM [9]; listed as R-(+) isomer): 2.0 nM |
| Cc1c2oc3c(C)c(OCC4CO4)cc(C(=O)NC4C(=O)NC(C(C)C)C(=O)N5CCCC5C(=O)N(C)CC(=O)N(C)C(C(C)C)C(=O)OC4C)c3nc-2c(C(=O)NC2C(=O)NC(C(C)C)C(=O)N3CCCC3C(=O)N(C)CC(=O)N(C)C(C(C)C)C(=O)OC2C)c(N)c1=O [(S)-(-)-EPA, 7-(2,3-epoxypropoxy) actinomycin D] | 135 ± 12 nM | 3.5 ± 1.0 nM | 377% | 5/10 | 43 days | 0.80 | 56.8 ± 8.8 nM | 0.05 milligrams/killograms per inje | 143% | 1/9 | 60% |  | 53.0 days | 1.0 milligrams/milliliter of vehic | 74% | 0.30 milligrams/milliliter of vehic | 64% | 1/10 | 36.0 days | 0.90 milligrams/milliliter of vehic | MST (median survival time) (B16 melanoma [6]): 33.0 days; 50% growth inhibitory dose (ID50) (CCRF-CEM [9]; listed as S-(-) isomer): 3.5 nM |
| COc1cccc2c1C(=O)c1c(O)c3c(c(O)c1C2=O)C[C@@](O)(C(=O)CO)C[C@@H]3O[C@H]1C[C@H](N)[C@H](O)[C@H](C)O1 [adriamycin, reference compound] |  |  |  |  |  |  |  |  |  |  | 79% | 1/9 | 59.0 days | 5.0 milligrams/milliliter of vehic | 224% | 5.0 milligrams/milliliter of vehic | 118% | 3/10 | 48.0 days | 2.50 milligrams/milliliter of vehic | (surv) sixty day survivors/number of mice treated (B16 melanoma [6]): 7/9; MST (median survival time) (B16 melanoma [6]): 60.0 days |
| CO[C@@]12[C@H](COC(N)=O)C3=C(C(=O)C(C)=C(N)C3=O)N1C[C@@H]1N[C@@H]12 [mitomycin, mitomycin C, reference compound] |  |  | 400% | 5/10 | 45 days | 1.0 |  |  |  |  |  |  |  |  |  |  |  |  |  |  |  |
